Source: US10544130B2, “Metallo-beta-lactamase inhibitors” (priority 2015, dated 2020)

System: Pseudomonas aeruginosa PAO1 MB9798 (efflux+, IMP-1)
Conditions: ratio MITC95 PA 9798/MITC95 PA 9799; imipenem at 2 μg/mL
Source text: The strain background was Pseudomonas aeruginosa PAO1.
The strain set was then used as a pair to determine the effect of metallo-β-lactamase inhibitors of Formula I on the MIC of imipenem and/or ceftazidime. A fixed concentration of antibiotic was included in standard microbroth MIC tests, usually at the CLSI (Clinical and Laboratory Standards Institute) breakpoint concentration. A fixed amount of a class A/C beta-lactamase inhibitor was also included to inhibit the resident Pseudomonas AmpC enzyme. A serial titration of the metallo-β-lactamase inhibitor was included and the concentration of metallo-β-lactamase inhibitor which restores susceptibility of the strain to the included antibiotic was recorded. That concentration of metallo-β-lactamase inhibitor was then compared between the two strains to determine the fold difference between the efflux + (MB9798) and efflux − (MB9799) strains. This was taken as an indication of the extent to which the MBLi is subject to efflux.

Structure (SMILES)	Efflux ratio
Nc1nc2c(-c3ccc(S(=O)(=O)NC4CNC[C@H]4N)c(S(N)(=O)=O)c3-c3nn[nH]n3)cccc2[nH]1 (stereo in doubt) [Example 322, 4-(2-Amino-1H-benzo[d]imidazol-4-yl)-N1-((3S,4R)-4-aminopyrrolidin-3-yl)-3-(2H-tetrazol-5-yl)benzene-1,2-disulfonamide]	0.83
Nc1nc2cccc(-c3ccc(S(N)(=O)=O)c(S(N)(=O)=O)c3-c3nn[nH]n3)c2[nH]1 [Example 1, 4-(2-amino-3H-benzo[d]imidazol-4-yl)-3-(2H-tetrazol-5-yl)benzene-1,2-disulfonamide]	0.65
Nc1ccc2cccc(-c3ccc(S(N)(=O)=O)c(S(N)(=O)=O)c3-c3nn[nH]n3)c2n1 [Example 2, 4-(2-aminoquinolin-8-yl)-3-(2H-tetrazol-5-yl)benzene-1,2-disulfonamide]	1.00
NS(=O)(=O)c1ccc(-c2cccc3cn[nH]c23)c(-c2nn[nH]n2)c1S(N)(=O)=O [Example 3, 4-(1H-indazol-7-yl)-3-(2H-tetrazol-5-yl)benzene-1,2-disulfonamide]	2.00
Nc1nc2c(-c3ccc(S(N)(=O)=O)c(S(N)(=O)=O)c3-c3nn[nH]n3)cccc2o1 [Example 4, 4-(2-aminobenzo[d]oxazol-4-yl)-3-(2H-tetrazol-5-yl)benzene-1,2-disulfonamide]	1.00
Cn1c(N)nc2c(-c3ccc(S(N)(=O)=O)c(S(N)(=O)=O)c3-c3nn[nH]n3)cccc21 [Example 5, 4-(2-amino-1-methyl-1H-benzo[d]imidazol-4-yl)-3-(2H-tetrazol-5-yl)benzene-1,2-disulfonamide]	2.00
Cc1ccc(-c2ccc(S(N)(=O)=O)c(S(N)(=O)=O)c2-c2nn[nH]n2)c2nc(N)sc12 [Example 6, 4-(2-amino-7-methylbenzo[d]thiazol-4-yl)-3-(2H-tetrazol-5-yl)benzene-1,2-disulfonamide]	1.00
NS(=O)(=O)c1ccc(-c2cccc3[nH]c(C(=O)O)nc23)c(-c2nn[nH]n2)c1S(N)(=O)=O [Example 8, 4-(3,4-disulfamoyl-2-(2H-tetrazol-5-yl)phenyl)-1H-benzo[d]imidazole-2-carboxylic acid]	1.00
NCCNS(=O)(=O)c1ccc(-c2cccc3cn[nH]c23)c(-c2nn[nH]n2)c1S(N)(=O)=O [Example 9, N^1-(2-aminoethyl)-4-(1H-indazol-7-yl)-3-(2H-tetrazol-5-yl)benzene-1,2-disulfonamide]	0.50
Cl.Cn1c(N)nc2c(-c3ccc(S(=O)(=O)NCCN)c(S(N)(=O)=O)c3-c3nn[nH]n3)cccc21 [Example 10, 4-(2-amino-1-methyl-1H-benzo[d]imidazol-4-yl)-N1-(2-aminoethyl)-3-(2H-tetrazol-5-yl)benzene-1,2-disulfonamide hydrochloride]	1.00
NCCNS(=O)(=O)c1ccc(-c2cccc3oc(N)nc23)c(-c2nn[nH]n2)c1S(N)(=O)=O [Example 11, 4-(2-aminobenzo[d]oxazol-4-yl)-N^1-(2-aminoethyl)-3-(2H-tetrazol-5-yl)benzene-1,2-disulfonamide]	1.00
NCCNS(=O)(=O)c1ccc(-c2cccc3[nH]c(N)nc23)c(-c2nn[nH]n2)c1S(N)(=O)=O [Example 12, 4-(2-amino-1H-benzo[d]imidazol-4-yl)-N^1-(2-aminoethyl)-3-(2H-tetrazol-5-yl)benzene-1,2-disulfonamide]	0.75
NCCNS(=O)(=O)c1ccc(-c2cccc3oc(C(=O)O)nc23)c(-c2nn[nH]n2)c1S(N)(=O)=O [Example 13, 4-(4-(N-(2-aminoethyl)sulfamoyl)-3-sulfamoyl-2-(2H-tetrazol-5-yl)phenyl)benzo oxazole-2-carboxylic acid]	2.00
Nc1nc2c(-c3ccc(S(=O)(=O)NC4CCS(=O)(=O)CC4)c(S(N)(=O)=O)c3-c3nnn[nH]3)cccc2s1 [Example 14, 4-(2-amino-1,3-benzothiazol-4-yl)-N1-(1,1-dioxidotetrahydro-2H-thiopyran-4-yl)-3-(1H-tetrazol-5-yl)benzene-1,2-disulfonamide]	1.00
Nc1nc2c(-c3ccc(S(=O)(=O)NCCN4CCNC(=O)C4)c(S(N)(=O)=O)c3-c3nnn[nH]3)cccc2s1 [Example 15, 4-(2-amino-1,3-benzothiazol-4-yl)-N1-[2-(3-oxopiperazin-1-yl)ethyl]-3-(1H-tetrazol-5-yl)benzene-1,2-disulfonamide]	1.00
CN(C)CC(F)(F)CNS(=O)(=O)c1ccc(-c2cccc3sc(N)nc23)c(-c2nnn[nH]2)c1S(N)(=O)=O [Example 16, 4-(2-amino-1,3-benzothiazol-4-yl)-N1-[3-(dimethylamino)-2,2-difluoropropyl]-3-(1H-tetrazol-5-yl)benzene-1,2-disulfonamide]	16.00

Structure (SMILES)	Efflux ratio
CN1CCOC(CNS(=O)(=O)c2ccc(-c3cccc4sc(N)nc34)c(-c3nnn[nH]3)c2S(N)(=O)=O)C1 (stereo not shown) [Example 17, 4-(2-amino-1,3-benzothiazol-4-yl)-N1-[(4-methylmorpholin-2-yl)methyl]-3-(1H-tetrazol-5-yl)benzene-1,2-disulfonamide]	2.00
CN1CCCC(NS(=O)(=O)c2ccc(-c3cccc4sc(N)nc34)c(-c3nnn[nH]3)c2S(N)(=O)=O)C1 (stereo not shown) [Example 18, 4-(2-amino-1,3-benzothiazol-4-yl)-N1-(1-methylpiperidin-3-yl)-3-(1H-tetrazol-5-yl)benzene-1,2-disulfonamide]	1.00
Nc1nc2c(-c3ccc(S(=O)(=O)NCC4CCC(=O)N4)c(S(N)(=O)=O)c3-c3nnn[nH]3)cccc2s1 (stereo not shown) [Example 19, 4-(2-amino-1,3-benzothiazol-4-yl)-N1-[(5-oxopyrrolidin-2-yl)methyl]-3-(1H-tetrazol-5-yl)benzene-1,2-disulfonamide]	1.00
Cn1cnc(CNS(=O)(=O)c2ccc(-c3cccc4sc(N)nc34)c(-c3nnn[nH]3)c2S(N)(=O)=O)n1 [Example 20, 4-(2-amino-1,3-benzothiazol-4-yl)-N^1-[(1-methyl-1H-1,2,4-triazol-3-yl)methyl]-3-(1H-tetrazol-5-yl)benzene-1,2-disulfonamide]	1.00
CN(C)CCNS(=O)(=O)c1ccc(-c2cccc3sc(N)nc23)c(-c2nnn[nH]2)c1S(N)(=O)=O [Example 22, 4-(2-amino-1,3-benzothiazol-4-yl)-N^1-[2-(dimethylamino)ethyl]-3-(1H-tetrazol-5-yl)benzene-1,2-disulfonamide]	1.00
CNC(=O)CNS(=O)(=O)c1ccc(-c2cccc3sc(N)nc23)c(-c2nnn[nH]2)c1S(N)(=O)=O [Example 23, N^2-{[4-(2-amino-1,3-benzothiazol-4-yl)-2-sulfamoyl-3-(1H-tetrazol-5-yl)phenyl]sulfonyl}-N-methylglycinamide]	1.00
COCCNS(=O)(=O)c1ccc(-c2cccc3sc(N)nc23)c(-c2nnn[nH]2)c1S(N)(=O)=O [Example 24, 4-(2-amino-1,3-benzothiazol-4-yl)-N^1-(2-methoxyethyl)-3-(1H-tetrazol-5-yl)benzene-1,2-disulfonamide]	4.00
Nc1nc2c(-c3ccc(S(=O)(=O)N4CCC(CO)CC4)c(S(N)(=O)=O)c3-c3nnn[nH]3)cccc2s1 [Example 25, 3-(2-amino-1,3-benzothiazol-4-yl)-6-{[4-(hydroxymethyl)piperidin-1-yl]sulfonyl}-2-(1H-tetrazol-5-yl)benzenesulfonamide]	16.00
CN(C)C1CCN(S(=O)(=O)c2ccc(-c3cccc4sc(N)nc34)c(-c3nnn[nH]3)c2S(N)(=O)=O)CC1 [Example 26, 3-(2-amino-1,3-benzothiazol-4-yl)-6-{[4-(dimethylamino)piperidin-1-yl]sulfonyl}-2-(1H-tetrazol-5-yl)benzenesulfonamide]	2.00
CN1CCN(S(=O)(=O)c2ccc(-c3cccc4sc(N)nc34)c(-c3nnn[nH]3)c2S(N)(=O)=O)CC1 [Example 27, 3-(2-amino-1,3-benzothiazol-4-yl)-6-[(4-methylpiperazin-1-yl)sulfonyl]-2-(1H-tetrazol-5-yl)benzenesulfonamide]	2.00
Nc1nc2c(-c3ccc(S(=O)(=O)N4CCNC(=O)C4)c(S(N)(=O)=O)c3-c3nnn[nH]3)cccc2s1 [Example 28, 3-(2-amino-1,3-benzothiazol-4-yl)-6-[(3-oxopiperazin-1-yl)sulfonyl]-2-(1H-tetrazol-5-yl)benzenesulfonamide]	4.00
Nc1nc2c(-c3ccc(S(=O)(=O)N4CCOCC4)c(S(N)(=O)=O)c3-c3nnn[nH]3)cccc2s1 [Example 29, 3-(2-amino-1,3-benzothiazol-4-yl)-6-(morpholin-4-ylsulfonyl)-2-(1H-tetrazol-5-yl)benzenesulfonamide]	16.00
Nc1nc2c(-c3ccc(S(=O)(=O)NCCC4CNC4)c(S(N)(=O)=O)c3-c3nnn[nH]3)cccc2s1 [Example 30, 4-(2-amino-1,3-benzothiazol-4-yl)-N1-(2-azetidin-3-ylethyl)-3-(1H-tetrazol-5-yl)benzene-1,2-disulfonamide]	1.00
CNCCNS(=O)(=O)c1ccc(-c2cccc3sc(N)nc23)c(-c2nnn[nH]2)c1S(N)(=O)=O [Example 31, 4-(2-amino-1,3-benzothiazol-4-yl)-N^1-[2-(methylamino)ethyl]-3-(1H-tetrazol-5-yl)benzene-1,2-disulfonamide]	1.50
Nc1nc2c(-c3ccc(S(=O)(=O)NC4CCNCC4)c(S(N)(=O)=O)c3-c3nnn[nH]3)cccc2s1 [Example 32, 4-(2-amino-1,3-benzothiazol-4-yl)-N1-piperidin-4-yl-3-(1H-tetrazol-5-yl)benzene-1,2-disulfonamide]	0.50
